Values of other authors as cited in patent publication US8263648B2, “Diebenzofuran derivatives as inhibitors of PDE-4 and PDE-10” (Mylan Laboratories Ltd., priority 2006, dated 2012).

Legend:
PDE10A1 = PDE10A1 (Homo sapiens, UniProt Q9Y233); conditions: substrate of PDE10A1, a splice variant of PDE10
[1] = oral dosages of up to 100 mg/kg

Sequence of PDE10A1 (Q9Y233 1-779 isoform Q9Y233-1): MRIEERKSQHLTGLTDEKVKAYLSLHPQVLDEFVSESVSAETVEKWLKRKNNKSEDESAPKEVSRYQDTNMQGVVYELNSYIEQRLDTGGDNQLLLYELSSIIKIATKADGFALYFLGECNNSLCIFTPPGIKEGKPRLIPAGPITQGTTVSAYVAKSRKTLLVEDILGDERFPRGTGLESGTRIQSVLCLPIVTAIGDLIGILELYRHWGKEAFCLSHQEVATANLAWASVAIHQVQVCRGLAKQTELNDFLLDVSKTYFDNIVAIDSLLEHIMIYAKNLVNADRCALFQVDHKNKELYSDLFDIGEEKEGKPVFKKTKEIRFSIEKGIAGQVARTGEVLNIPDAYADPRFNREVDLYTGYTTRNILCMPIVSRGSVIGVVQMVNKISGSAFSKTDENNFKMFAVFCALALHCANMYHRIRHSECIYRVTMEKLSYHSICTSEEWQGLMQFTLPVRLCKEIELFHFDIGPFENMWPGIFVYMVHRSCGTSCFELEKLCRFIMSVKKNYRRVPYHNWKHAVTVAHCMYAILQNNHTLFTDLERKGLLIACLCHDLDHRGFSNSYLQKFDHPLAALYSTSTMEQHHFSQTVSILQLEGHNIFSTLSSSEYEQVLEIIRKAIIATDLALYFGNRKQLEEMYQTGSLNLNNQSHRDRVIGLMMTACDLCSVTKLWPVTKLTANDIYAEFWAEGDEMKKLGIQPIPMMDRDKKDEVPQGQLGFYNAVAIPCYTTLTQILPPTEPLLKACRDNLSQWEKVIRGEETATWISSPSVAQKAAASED

| Km (PDE10A1) [µM] | Structure (SMILES) | emetic effect [1] |
| --- | --- | --- |
| 3 | Nc1nc2c(ncn2[C@@H]2O[C@@H]3COP(=O)(O)O[C@H]3[C@H]2O)c(=O)[nH]1 [cGMP] |  |
|  | CS(=O)(=O)Nc1ccc2oc3c(OC(F)F)ccc(C(=O)Nc4c(Cl)cncc4Cl)c3c2c1 [GRC3886] | no emetic effect |
